In publication PMC6582486, “Stapled EGFR peptide reduces inflammatory breast cancer and inhibits additional HER-driven models of cancer” (Journal of Translational Medicine, 2019):
Where a SMILES comes first, the peptide text is derived from it. Bridges are numbered along the chain shown (N, C = ends). [ ]: non-standard residue; d: D form. R8 = C=CCCCCCC[C@@](C)(N)C(=O)O; S5 = C=CCCC[C@](C)(N)C(=O)O

Assay: 28-day toxicity study: injection site reactogenicity
Format: in vivo, CD-1 mice
Settings: for Injection site reactogenicity: Animals with Signs: 28-day study
Procedure: Toxicology was performed by IITRI. The study was conducted in compliance with the US Food and Drug Administration (FDA) good laboratory practice (GLP) Regulations (Code of Federal Regulations Title 21 Part 58) to evaluate the toxicokinetics, local tolerability, immunogenicity, and potential toxicity of SAH5-EJ1 following three times per week intravenous (IV) dosing for 28 days in mice. Male and female CD-1 IGS [Crl:CD1(ICR)] mice (135 per sex) were received from Wilmington, MA-based Charles River Laboratories, Inc.’s Kingston facility (Stone Ridge, NY).
Response measured at 6 and 24 hours post-injection.

In the case of CC[C@H](C)[C@H](NC(=O)[C@H](Cc1c[nH]cn1)NC(=O)[C@H](CCCNC(=N)N)NC(=O)[C@H](CCCNC(=N)N)NC(=O)[C@H](CCCNC(=N)N)NC(=O)[C@H](CCSC)NC(=O)[C@H](Cc1ccccc1)NC(=O)[C@H](C)NC(=O)[C@H](CCCNC(=N)N)NC(=O)[C@H](C)NC(=O)[C@H](CCC(N)=O)NC(=O)[C@H](CCCNC(=N)N)NC(=O)[C@H](C)NC(=O)[C@H](C)NC(=O)[C@H](C)NC(=O)[C@H](CCCNC(=N)N)NC(=O)[C@H](C)NC(=O)[C@@H](N)Cc1ccc(O)cc1)C(=O)N[C@H](C(=O)N[C@@H](CCCNC(=N)N)C(=O)N[C@@H](CCCCN)C(=O)N[C@@H](CCCNC(=N)N)C(=O)N[C@]1(C)CCCCCCC=CCCC[C@@](C)(C(=O)N[C@@H](CCCNC(=N)N)C(=O)N[C@@H](CCC(=O)O)C(N)=O)NC(=O)[C@H](CCC(N)=O)NC(=O)[C@H](CC(C)C)NC(=O)[C@H](CC(C)C)NC(=O)[C@H](CCCNC(=N)N)NC(=O)[C@H](CCCNC(=N)N)NC(=O)[C@H](CC(C)C)NC1=O)C(C)C [SAH5-EJ1] (H-YARAAARQARAFMRRRHIVRKR[R8]LRRLLQ[S5]RE-NH2; staple 23-30), the “Erythema and Eschar: 3 - Moderate, bright red, distinct (animals)” value (“Erythema and Eschar: 3 - Moderate” for short) (female, 10 mg/kg, 10 examined) is reported as 5, the “Erythema and Eschar: 4 - Severe, dark red, pronounced (animals)” value (“Erythema and Eschar: 4 - Severe” below) (female, 10 mg/kg, 10 examined) is reported as 2 and the “Injection site reactogenicity: Animals with Signs” value (“Injection site reactogenicity” for short) (female, 10 mg/kg, 10 examined) is reported as 10. For the same molecule, the “Edema (animals)” value (female, 15 mg/kg, 15 examined) was 15, the “Edema: 0 - Normal, no swelling (animals)” value (female, 15 mg/kg, 15 examined) was 15 and the “Edema: 1 - Minimal, slight swelling (animals)” value (“Edema: 1 - Minimal” below) (female, 15 mg/kg, 15 examined) was 14. For the same molecule, the “Edema: 2 - Mild, defined swelling (animals)” value (“Edema: 2 - Mild” below) (female, 15 mg/kg, 15 examined) was 12, the “Edema: 3 - Moderate, defined swelling, raised border (animals)” value (from here on “Edema: 3 - Moderate, defined swelling”) (female, 15 mg/kg, 15 examined) was 1 and the “Erythema and Eschar Formation (animals)” value (female, 15 mg/kg, 15 examined) was 15. The “Erythema and Eschar: 0 - Normal (animals)” value (female, 15 mg/kg, 15 examined) was 15, the “Erythema and Eschar: 1 - Minimal (animals)” value (female, 15 mg/kg, 15 examined) was 10 and the “Erythema and Eschar: 2 - Mild, bright pink/pale, distinct (animals)” value (female, 15 mg/kg, 15 examined) was 14. The “Erythema and Eschar: 3 - Moderate” value (female, 15 mg/kg, 15 examined) was 5, the “Erythema and Eschar: 4 - Severe” value (female, 15 mg/kg, 15 examined) was 6 and the “Injection site reactogenicity” value (female, 15 mg/kg, 15 examined) was 15. The “Edema (animals)” value (male, 5 mg/kg, 10 examined) was 10, the “Edema: 0 - Normal, no swelling (animals)” value (male, 5 mg/kg, 10 examined) was 10 and the “Edema: 1 - Minimal” value (male, 5 mg/kg, 10 examined) was 7. For the same molecule, the “Edema: 2 - Mild” value (male, 5 mg/kg, 10 examined) was 0, the “Edema: 3 - Moderate, defined swelling” value (male, 5 mg/kg, 10 examined) was 0 and the “Edema: 4 - Severe, pronounced swelling, raised border (animals)” value (from here on “Edema: 4 - Severe, pronounced swelling”) (male, 5 mg/kg, 10 examined) was 0. The “Erythema and Eschar Formation (animals)” value (male, 5 mg/kg, 10 examined) was 10, the “Erythema and Eschar: 0 - Normal (animals)” value (male, 5 mg/kg, 10 examined) was 10 and the “Erythema and Eschar: 1 - Minimal (animals)” value (male, 5 mg/kg, 10 examined) was 3. For the same molecule, the “Erythema and Eschar: 2 - Mild, bright pink/pale, distinct (animals)” value (male, 5 mg/kg, 10 examined) was 2, the “Erythema and Eschar: 3 - Moderate” value (male, 5 mg/kg, 10 examined) was 0 and the “Erythema and Eschar: 4 - Severe” value (male, 5 mg/kg, 10 examined) was 1. For the same molecule, the “Injection site reactogenicity” value (male, 5 mg/kg, 10 examined) was 10, the “Edema (animals)” value (male, 10 mg/kg, 10 examined) was 10 and the “Edema: 0 - Normal, no swelling (animals)” value (male, 10 mg/kg, 10 examined) was 10. For the same molecule, the “Edema: 1 - Minimal” value (male, 10 mg/kg, 10 examined) was 8, the “Edema: 2 - Mild” value (male, 10 mg/kg, 10 examined) was 7 and the “Edema: 3 - Moderate, defined swelling” value (male, 10 mg/kg, 10 examined) was 1. For the same molecule, the “Edema: 4 - Severe, pronounced swelling” value (male, 10 mg/kg, 10 examined) was 1, the “Erythema and Eschar Formation (animals)” value (male, 10 mg/kg, 10 examined) was 10 and the “Erythema and Eschar: 0 - Normal (animals)” value (male, 10 mg/kg, 10 examined) was 10. The “Erythema and Eschar: 1 - Minimal (animals)” value (male, 10 mg/kg, 10 examined) was 6, the “Erythema and Eschar: 2 - Mild, bright pink/pale, distinct (animals)” value (male, 10 mg/kg, 10 examined) was 8 and the “Erythema and Eschar: 3 - Moderate” value (male, 10 mg/kg, 10 examined) was 4. The “Erythema and Eschar: 4 - Severe” value (male, 10 mg/kg, 10 examined) was 2, the “Injection site reactogenicity” value (male, 10 mg/kg, 10 examined) was 10 and the “Edema (animals)” value (male, 15 mg/kg, 15 examined) was 15. The “Edema: 0 - Normal, no swelling (animals)” value (male, 15 mg/kg, 15 examined) was 15, the “Edema: 1 - Minimal” value (male, 15 mg/kg, 15 examined) was 14 and the “Edema: 2 - Mild” value (male, 15 mg/kg, 15 examined) was 14. The “Edema: 3 - Moderate, defined swelling” value (male, 15 mg/kg, 15 examined) was 7, the “Edema: 4 - Severe, pronounced swelling” value (male, 15 mg/kg, 15 examined) was 2 and the “Erythema and Eschar Formation (animals)” value (male, 15 mg/kg, 15 examined) was 15. The “Erythema and Eschar: 0 - Normal (animals)” value (male, 15 mg/kg, 15 examined) was 15, the “Erythema and Eschar: 1 - Minimal (animals)” value (male, 15 mg/kg, 15 examined) was 11 and the “Erythema and Eschar: 2 - Mild, bright pink/pale, distinct (animals)” value (male, 15 mg/kg, 15 examined) was 15. For the same molecule, the “Erythema and Eschar: 3 - Moderate” value (male, 15 mg/kg, 15 examined) was 10, the “Erythema and Eschar: 4 - Severe” value (male, 15 mg/kg, 15 examined) was 6 and the “Injection site reactogenicity” value (male, 15 mg/kg, 15 examined) was 15.
